Assay results published in patent US20260318831A1 (University of Cincinnati, priority 2023, published 2026).

How the values were obtained:
[1] = UV-visible absorption of PyQPMe in aqueous buffers pH 4.0-8.0; type: physicochemical
Text: (§1) In some aspects, the fluorescence of the probe changes as the pH of an endolysosome changes, such as between a pH range of about 8.0 to about 2.0. With the designed probe PyQPMe in hand, its UV-visible absorption was screened in aqueous buffers with a pH range of 8.0 to 4.0. […] Simultaneously, a new absorption maximum at 447 nm (ε=27,264 M^−1 cm^−1) rises with its tail exceeding 600 nm in pH 4.0 buffer solution. […] In addition, the fluorescence intensities of PyQPMe used for different imaging channels of the microscope were compared, where the wavelengths of 500 nm and 645 nm represent the green and red channels, respectively. When the buffer solution is much more acidic, the fluorescence intensity ratio of I645 nm/I500 nm is higher than 1 (FIG. 2C), indicating red color dominates the fluorescence of PyQPMe. Conversely, with increasing the pH value, green fluorescence light is becoming the predominant color for imaging.
(§2) Phosphate buffer solution. A series of standard pH buffer solutions were prepared by mixing 0.2 M Na2HPO4·7H2O, 0.2 M KH2PO4, and 0.2 M H3PO4 with varied volume ratios, and the pH values were measured by using a Mettler Toledo pH-meter.
(§3) Absorption and emission measurements. 3.0 mL phosphate buffer solution and 6.44 μL probe stock solution (4.66 mM) were mixed well, and an appropriate portion of the solution was transferred to a quartz cell with 1 cm optical length to collect the absorption spectra on an Agilent Cary 453 spectrophotometer. The fluorescence spectra were recorded on a HORIBA Fluorolog QM spectrofluorometer.

[2] = Fluorescence emission of PyQPMe in buffer solutions with different pH; type: physicochemical
Text: as §1
(§4) Next, the effect of potential biochemical species on the fluorescence intensity of PyQPMe in both pH 3.0 and 8.2 buffer solutions was investigated. […] Fluorescence spectra of PyQPMe in various solvents with different polarities were also obtained. […] Furthermore, the photostability of PyQPMe was investigated under different pH conditions. […] Taken together, the above photophysical results identify that PyQPMe is a pH-sensitive probe, well suited for studying endolysosome dynamics via high-resolution imaging techniques.
as §2, §3
Fluorescence reversibility of PyQPMe. The pH of a PyQPMe solution between pH 3.0 and pH 8.5 was adjusted back and forth by adding 2.0 M KOH or 3.0 M HCl, which was monitored by a Mettler Toledo pH meter.

[3] = Effect of potential biochemical species on fluorescence intensity; type: physicochemical; settings: pH 3.0 or 8.2; cations, anions, H2O2, Cys, Hcy, GSH
Text: as §4

[4] = tested on: endolysosomes in HeLa cells; experiment: Dual-channel confocal imaging of PyQPMe-stained endolysosomes, co-stained with LTDR; type: cell-based
Method: Next, imaging studies of PyQPMe were performed under a dual channel mode with the same excitation of 405 nm (green channel, emission range of 470-530 nm; red channel, emission range of 610-680 nm). Due to the strong green emission properties of PyQPMe over a wide pH range, many puncta fluorescence appeared throughout the cell in the green channel image (FIG. 3A). While in the red channel image, there is less puncta fluorescence in the cell because PyQPMe only emits red light at pH values below 6. Therefore, this imaging property of PyQPMe at different channels can guide one to track different stages of endocytosis. Images were randomly zoomed in and their fluorescence intensity was compared. […] Further, the average diameter of PyQPMe red spots is around 0.6 μm, which is in line with the reported size of lysosomes. To further verify the targeting ability of PyQPMe, the cells were co-stained with commercial lysosome dye Lyso-Tracker Deep Red (LTDR) and imaged under a deep red channel (excitation of 640 nm, emission range of 690-740 nm).
(§5) Leica Stellaris 8 Confocal imaging. High-resolution images were acquired on a commercial Leica Stellaris 8 Confocal Microscope under LIGHTNING mode. Laser powers were set at 10% intensity for 405 nm and 640 nm channels. The objective was 63×/1.4. High-resolution images were captured from the randomly selected field of view and analyzed with Leica LAS X and ImageJ software. All the images were exported on the Auto scale of the Leica LAS X software. Cells were seeded on glassed-bottomed cell dishes (MatTek) for 24 hours. Cells stained with PyQPMe (20 nM, 10 min) were treated with Wortmannin (1 μM, 24 h), CCCP ([…], 24 h), rapamycin (0.5 μM, 24 h), chloroquine (25 μM, 30 min), and NH4Cl (50 mM, 30 min). All PCC values were analyzed in the CellProfiler.

[5] = tested on: endolysosomes in HeLa cells; experiment: Resolution limit in LIGHTNING confocal images; type: cell-based
Text: The fluorescence images of PyQPMe were compared before and after the LIGHTNING module. […] To test the resolution limit of PyQPMe, confocal images were stochastically selected, and underlined the areas with luminescence in the images (FIG. 4A, 4C). The FWHMs (full width at half maximum) of these bright puncta fluorescence of PyQPMe-stained endolysosomes and later endosomes/lysosomes are down to 174 nm and 184 nm (FIG. 4B, 4D), respectively.
as §5

HeLa cells = experiment: Background fluorescence / signal-to-noise comparison with LysoTracker Red; type: cell-based; settings: compared with LTR, same imaging conditions
Text: Since PyQPMe has a large Stokes shift and strong fluorescence intensity, it can effectively reduce the background noise caused by excitation light and microenvironments. To illustrate this merit, the commercial lysosome dye (LysoTracker Red, LTR) was selected for comparison. Two different regions of the background were randomly chosen in each fluorescence image and plotted their 3D fluorescence intensity distribution maps, as shown in FIG. 4E.
as §5

SMILES: CN1CCN(c2ccc(/C=C/c3ccc4cc(-c5ccncc5)ccc4[n+]3C)cc2)CC1 [PyQPMe, (E)-1-methyl-2-(4-(4-methylpiperazin-1-yl)styryl)-6-(pyridin-4-yl)quinolin-1-ium]
- pKa ([1]; aqueous buffers, from absorption at 394 and 447 nm, pH 8.0 to 4.0, read-out: apparent pKa value): ~5
- absorption maximum ([1]; neutral condition): 394 nm
- ε at absorption maximum 394 nm ([1]; neutral condition): 34,147 M^−1cm^−1
- new absorption maximum ([1]; pH 4.0 buffer solution): 447 nm
- ε at absorption maximum 447 nm ([1]; pH 4.0 buffer solution): 27,264 M^−1 cm^−1
- maximum emission peak ([2]; 405 nm excitation, neutral solution): 510 nm
- new emission peak ([2]; 405 nm excitation, pH decreased from 8.0 to 4.0): 650 nm
- Stokes shift ([2]; acid solution): greater than 200 nm
- reversibility of emission spectra ([2]; between pH 8.5 and pH 3.0): excellent reversibility
- cut-off pH for the red to green fluorescence intensity ratio ([2]; from FIG. 2C): 5-6
- fluorescence intensity ratio I645 nm/I500 nm ([2]; much more acidic buffer solution): higher than 1
- quantum yield ([2]; pH 4.0 buffer solution): 0.23%
- fluorescence over pH window ([2]; pH 8.0 to 4.0): remains fluorescent within the entire pH window
- red shift of emission ([2]; pH decreased from 8.0 to 4.0): 140 nm
- emission intensity ratio I510 nm/I650 nm against pH ([2]; pH titration curve): decent linear relationship
- effect of solvent polarity on fluorescence ([2]; various solvents with different polarities): polarity has no effect on the fluorescence
- effect of interfering substances on emission intensity [3]: none of these interfering substances could quench the emission intensity
- ratio of red to green fluorescence intensity, early endosomes ([4]; ex 405 nm, early endosomes): very low ratio of red to green fluorescence intensity
- ratio of red to green fluorescence intensity, late endosomes/lysosomes ([4]; ex 405 nm, late endosomes/lysosomes): higher than 1
- PCC with LTDR, green channel ([4]; green channel particles vs deep red channel of LTDR): 0.46
- average diameter of red spots ([4]; red channel): around 0.6 μm
- Pearson correlation coefficient (PCC) with LTDR, red channel ([4]; red channel puncta vs deep red channel of LTDR): about 0.70
- pH below which red light is emitted ([4]; red channel, 610-680 nm): below 6
- FWHM of puncta, endolysosomes ([5]; PyQPMe-stained endolysosomes): 174 nm
- FWHM of puncta, late endosomes/lysosomes ([5]; PyQPMe-stained late endosomes/lysosomes): 184 nm
- background fluorescence of confocal images (HeLa cells): significantly reduced
- signal-to-noise ratio (HeLa cells): better than that of LTR
